What was measured:
[1] = test system: A2780 cells; assay: Mitochondrial membrane potential, JC-1 staining; format: cell-based, human; conditions: Re9 1.25 and 2.5 μM, 24 h, antimycin A 6 h
Procedure: After the treatment period, the cells were collected and resuspended in prewarmed PBS containing JC-1 (1 μM). The cell suspension was then incubated for 30 min at 37 °C. Following the incubation, the cells were washed twice with PBS and immediately analyzed using a flow cytometer (FACSCAlibur Beckton Dickinson). Fluorescence measurements were performed by detecting both the monomeric (emission at 530 ± 30 nm; green) and aggregated (emission at 585 ± 30 nm; red) forms of JC-1 upon excitation at 488 nm. For each sample, a total of 10,000 events were acquired during the analysis.

[2] = test system: HeLa; assay: MTT antiproliferative activity in HeLa cells; format: cell-based, human; conditions: MTT test, 48 h of treatment
Procedure: (§1) Human ovarian carcinoma cell lines (A2780) were cultured in RPMI-1640 medium, while the human cervix adenocarcinoma cell line (HeLa), tumor breast cancer cell line, and nontumorigenic buffalo green monkey cells (BGM) were cultured in DMEM and EMEM (containing nonessential amino acids) medium. The cell culture media were supplemented with 10% fetal bovine serum (FBS), 1% L-glutamine, and 1% penicillin/streptomycin. The cells were maintained in a humidified incubator at 37 °C with a 5% CO2 atmosphere and subcultured 2–3 times a week, each with an appropriate density for its specific cell line. Prior to the experiments, the cell lines were confirmed to be free from mycoplasma contamination using Hoechst DNA staining standard procedures. During cell-based assays, the maximum amount of dimethyl sulfoxide (DMSO) added as a solvent for treatment was limited to 0.4% (v/v) to avoid any potential vehicle-induced toxicity to the cells. Cells were cultured in 96-well plates and allowed to reach confluence. The tested compounds were dissolved in DMSO at a maximum concentration of 0.4% (v/v) and immediately diluted with fresh media. The cells were then incubated with varying concentrations of the Re1–Re9 for 48 h at 37 °C. […] The absorbance at 570 nm was measured using a microplate reader (FLUOstar Omega).

[3] = test system: A2780; assay: MTT antiproliferative activity in A2780 cells; format: cell-based, human; conditions: MTT test, 48 h of treatment
Procedure: as §1

[4] = test system: BGM; assay: MTT test in nontumorigenic BGM cells; format: cell-based, buffalo green monkey; conditions: 48 h of treatment, normal cells
Procedure: as §1

[5] = test system: A2780 cells; assay: Scanning electron microscopy of cell morphology; format: cell-based, human; conditions: A2780, 24 h
Procedure: A2780 cells were treated with CDDP and Re9 for 24 h. Cells then were fixed with 4% PFA fix solution for 30 min and washed with PBS three times. Sample were dehydrated through a graded series of ethanol (30, 50, 70, 95, and 100%), dried by the tertiary butanol method, and then imaged with a SEM operating at 20.0 kV.

[6] = test system: A2780 cells; assay: Annexin V-FITC/PI dual staining, flow cytometry; format: cell-based, human; conditions: 10 μM, 24 h
Procedure: The annexin V/PI assay was performed following the instructions provided by the manufacturer (Roche). A2780 cells were seeded in 12-well plates at a density of 3 × 10^5 cells/well and incubated overnight. […] After the treatment, the cells were collected and stained with annexin V and PI, following the procedure mentioned earlier. The staining was carried out at room temperature for 15 min in the absence of light, and the samples were immediately analyzed using flow cytometry (FACSCalibur Beckton Dickinson) with an excitation wavelength of 488 nm. The absorbance at 488 nm of compound Re9 was considered negligible. The data obtained from the assay were analyzed using FlowJo Software (TreeStar).

[7] = test system: A2780 cells; assay: DNA damage by pH2AX staining, flow cytometry; format: cell-based, human; conditions: A2780, 24 h
Procedure: DNA damage was evaluated by flow cytometry in A2780 cells. […] Cells were then collected by trypsinization, washed with PBS, and fixed in 200 μL 0.2% PFA for 5 min. After fixation, cells were pelleted, suspended in a 3% FBS solution containing anti phospho-H2AX ([…]) FITC-conjugated monoclonal antibody (CR55T33, eBioscience) at a concentration of 0.6 μg/mL, and incubated for 2 h at room temperature in the dark. Analysis of stained cells was carried out using a Becton Dickinson FACSCalibur flow cytometer with 10,000 acquisitions per sample, registering the FL1-H channel (λexc = 488 nm). Two independent experiments, each with n = 2, were conducted.

[8] = test system: C. elegans strain MT2124; format: in vivo, Caenorhabditis elegans
Text: Caenorhabditis elegans strains JK1466 [gld-1(q485)/dpy-5(e61) unc-13(e51)] and MT2124 [let-60(n1046)] were kindly donated by the Caenorhabditis Genetic Center (CGC, Saint Paul, Minnesota, United States), which is funded by the “NIH Office of Research Infrastructure Programs” (P40 OD010440). The strains were maintained and cultured following the protocols established by Stiernagle.[78]−[80] Synchronous cohorts of C. elegans prepared using the bleach method were used in all the assays.
MT2124 (Muv phenotype) L1 larvae were incubated for 72 h at 20 °C in S basal medium with different concentrations of Re9 (0.1–150 μM) supplemented with E. coli OP50. Antitumoral evaluation was performed following the protocol described by Medina and coauthors with modifications.[81] Ten microliters of a suspension containing young adult nematodes were place in a microscope slide along with 10 μL of sodium azide to reduce its movement. Images of whole worms were taken at 10× magnification using the bright-field microscope. The animals were classified as multivulva (MT) if they had more than one vulva protruding from the […] (Figure 12B) or wild-type if they only had one (WT). Then, the percentage of multivulva animals were calculated with eq 1. [drawing 1] 1
Additionally, the number of vulvas of the multivulva animals were counted. Two independent assays were performed with n ≥ 25 and the statistical significance was estimated by the ANOVA test.

[9] = test system: C. elegans strain JK1466; design: method as in earlier work; conditions: ref "Recent studies"; cited from earlier work
[10] = test system: wild-type C. elegans; design: method as in PMID 29752286; conditions: 100 μM, cited from earlier work

| Compound | mitochondrial membrane potential (MMP) levels [1] | IC50 [2] [µM] | IC50 [3] [µM] | IC50 [4] [µM] | cell death type from SEM morphology [5] | Q2 cells (annexin V+/PI+, late apoptotic or pyroptotic) [6] [%] | Q3 cells (annexin V+/PI–, early apoptotic) [6] [%] | DNA damage (pH2AX staining) [7] | reduction of MT phenotypic incidence ([8]; 50 μM) [%] | reduction of the number of vulvas ([8]; 50 μM) [%] | MT (multivulva animals) ([8]; 50 μM, 72 h) [%] | WT (wild-type nematodes) ([8]; 50 μM, 72 h) [%] | n° vulvas ([8]; 50 μM, multivulva phenotype nematodes) | effect of concentrations above 50 μM on the nematodes ([8]; in vivo) | reduction of tumor size [9] [%] | progeny, share of the expected brood ([10]; L4 animals) [%] | reduction of animal size ([10]; wild-type larvae, 48 h) [%] | development stage ([10]; wild-type, 48 h) |
| --- | --- | --- | --- | --- | --- | --- | --- | --- | --- | --- | --- | --- | --- | --- | --- | --- | --- | --- |
| CCCCCC[C@H]1C(=O)O[C@H](C)[C@H](NC(=O)c2cccc(NC=O)c2O)C(=O)O[C@@H](C)[C@@H]1OC(=O)CC(C)C [antimycin A, Antimycin A] | significant decrease in MMP levels |  |  |  |  |  |  |  |  |  |  |  |  |  |  |  |  |  |
| N.N.[Cl][Pt][Cl] [cisplatin] |  | 23.3 ± 2 | 2.9 ± 0.4 | 6.8 ± 0.9 | apoptosis | 16.9 | 13.8 | significantly contributed to the induction of DNA damage | 58.2 | 52 | 34.62 | 65.38 | 1.40 | developmental arrest | 48 | 10 | 75 | L2 stage |

Source: article PMC11129195, “Novel Re(I) Complexes as Potential Selective Theranostic Agents in Cancer Cells and In Vivo in Caenorhabditis elegans Tumoral Strains” (Journal of Medicinal Chemistry, 2024)
